From patent US20110190280A1, “Thiazole And Oxazole Kinase Inhibitors” (priority 2007, published 2011)
pIC50: −log10 of the molar value. Counter-ions that a name gives are not always drawn.

Assays:
B-Raf = B-Raf (Homo sapiens, UniProt P15056); assay: B-Raf Accelerated MEK ATPase assay (BRAMA); format: biochemical; conditions: BRAMA enzyme assay, class by pIC50; for pIC50: read-out: B-Raf Activity
Protocol: Compounds of the present invention were tested for B-Raf […] inhibitory activity in a B-Raf Accelerated MEK ATPase assay (BRAMA). The BRAMA assay is a high sensitivity assay which measures an intrinsic MEK-mediated ATP hydrolysis uncoupled from downstream ERK phosphorylation by coupling the formation of ADP to NADH oxidation through the enzymes pyruvate kinase and lactate dehydrogenase. When ADP production is initiated by addition of catalytic amounts of an activated RAF enzyme and non-phosphorylated MEK, one observes robust ADP production concomitant with RAF-mediated phosphorylation of MEK. Specific details of the assay are disclosed in: C. Rominger, M. Schaber, E. May. Assay for B-Raf Activity Based on Intrinsic MEK ATPase Activity.

A375P tumor cells = assay: Cell growth inhibition assay (CellTiter-Glo), A375P; conditions: Homo sapiens, 72 h, read-out: Activity in A375P Tumor Cells;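 note: total ATP luminescence used as proxy for cell number, serial threefold compound dilutions at 0.2% DMSO, growth inhibition expressed versus DMSO vehicle-treated wells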
HT-29 tumor cells = assay: Cell growth inhibition assay (CellTiter-Glo), HT-29; conditions: Homo sapiens, HT-29, 72 h, read-out: Activity in HT-29 Tumor Cells;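 note: ATP content read by luminescence as proxy for cell number, growth inhibition versus DMSO vehicle wells, 0.2% DMSO final, nine serial threefold compound dilutions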
Colo205 tumor cells = assay: Cell growth inhibition assay (CellTiter-Glo), Colo205; conditions: Homo sapiens, COLO 205, 72 h, read-out: Activity in Colo205 Tumor Cells;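 note: growth measured via total ATP luminescence (CellTiter-Glo) as a proxy for cell number, inhibition expressed against DMSO-treated control wells, 3-day exposure at 0.2% final DMSO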
SK-MEL-3 tumor cells = assay: Cell growth inhibition assay (CellTiter-Glo), SK-MEL-3; conditions: Homo sapiens, SK-MEL3, 72 h, read-out: Activity in SK-MEL-3 Tumor Cells;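 note: human melanoma cells grown with compound for 3 days in 0.2% DMSO, total ATP read by luminescence as proxy for cell number, growth inhibition versus DMSO-treated wells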
SK-MEL-28 tumor cells = assay: Cell growth inhibition assay (CellTiter-Glo), SK-MEL-28; conditions: Homo sapiens, SK-MEL-28, 72 h, read-out: Activity in SK-MEL-28 Tumor Cells;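 note: luminescent total ATP as a proxy for cell number, threefold serial dilutions at 0.2% DMSO, percent growth inhibition versus DMSO vehicle control wells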

B-Raf, sequence (P15056 whole entry): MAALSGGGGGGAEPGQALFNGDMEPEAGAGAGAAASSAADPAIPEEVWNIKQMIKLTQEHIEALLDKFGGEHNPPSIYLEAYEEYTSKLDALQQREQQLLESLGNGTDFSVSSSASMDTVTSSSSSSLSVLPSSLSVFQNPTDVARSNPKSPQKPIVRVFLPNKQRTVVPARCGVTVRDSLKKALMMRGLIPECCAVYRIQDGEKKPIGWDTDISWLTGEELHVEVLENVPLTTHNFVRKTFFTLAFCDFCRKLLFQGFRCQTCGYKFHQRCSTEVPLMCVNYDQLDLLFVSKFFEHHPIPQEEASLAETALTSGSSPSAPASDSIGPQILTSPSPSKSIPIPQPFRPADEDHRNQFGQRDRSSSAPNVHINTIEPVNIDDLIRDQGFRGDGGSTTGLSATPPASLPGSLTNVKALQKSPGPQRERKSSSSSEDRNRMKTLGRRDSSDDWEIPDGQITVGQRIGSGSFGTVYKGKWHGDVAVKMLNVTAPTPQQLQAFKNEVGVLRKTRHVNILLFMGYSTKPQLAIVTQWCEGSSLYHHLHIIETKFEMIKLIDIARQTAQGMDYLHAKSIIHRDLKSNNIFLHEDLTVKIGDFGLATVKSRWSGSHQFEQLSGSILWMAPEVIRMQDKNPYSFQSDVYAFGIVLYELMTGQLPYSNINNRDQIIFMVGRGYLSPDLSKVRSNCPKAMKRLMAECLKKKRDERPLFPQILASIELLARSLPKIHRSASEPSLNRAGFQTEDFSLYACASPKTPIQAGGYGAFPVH

Structure (SMILES) | pIC50 (B-Raf) | pIC50 (A375P tumor cells) | pIC50 (HT-29 tumor cells) | pIC50 (Colo205 tumor cells) | pIC50 (SK-MEL-3 tumor cells) | pIC50 (SK-MEL-28 tumor cells) | B-Raf Activity (B-Raf)
CCNc1nc(-c2cc(OC)cc(OC)c2)c(-c2ccnc(Nc3ccc(OCCN(C)C)c(C)c3)n2)s1 [Example 106] | > 7.00 | > 6.30 | > 6.30 | > 6.30 | > 6.30 | 5.30 to 6.30 | 
COc1cc(-c2nc(NC3CC3)sc2-c2ccnc(Nc3ccc(OCCN4CCCC4)c(Cl)c3)n2)ccc1Cl [Example 51, 4-[4-[4-Chloro-3-(methyloxy)phenyl]-2-(cyclopropylamino)-1,3-thiazol-5-yl]-N-(3-chloro-4-{[2-(1-pyrrolidinyl)ethyl]oxy}phenyl)-2-pyrimidinamine] | > 7.00 | 5.30 to 6.30 | > 6.30 | > 6.30 | > 6.30 | 5.30 to 6.30 | 
CCNc1nc(-c2cc(OC)cc(OC)c2)c(-c2ccnc(Nc3ccc(N4CCN(C)CC4)c(Cl)c3)n2)s1 [Example 11, 4-[4-[3,5-Bis(methyloxy)phenyl]-2-(ethylamino)-1,3-thiazol-5-yl]-N-[3-chloro-4-(4-methyl-1-piperazinyl)phenyl]-2-pyrimidinamine] | > 7.00 | > 6.30 | > 6.30 | > 6.30 | > 6.30 | > 6.30 | 
CCNc1nc(-c2cc(C)cc(OC)c2)c(-c2ccnc(Nc3ccc(OC4CCN(CCS(C)(=O)=O)CC4)c(C)c3)n2)o1 [Example 125] | > 7.00 | 5.30 to 6.30 | 5.30 to 6.30 | 5.30 to 6.30 | 5.30 to 6.30 | 5.30 to 6.30 | 
CCNc1nc(-c2cc(OC)cc(OC)c2)c(-c2ccnc(Nc3cc(F)c(N4CCN(CCF)CC4)c(F)c3)n2)o1 [Example 94] | > 7.00 | 5.30 to 6.30 | > 6.30 | > 6.30 | > 6.30 | 5.30 to 6.30 | 
CCNc1nc(-c2cc(C)cc(OC)c2)c(-c2ccnc(Nc3ccc(OCCOC)c(F)c3)n2)s1 [Example 38, 4-{2-(Ethylamino)-4-[3-methyl-5-(methyloxy)phenyl]-1,3-thiazol-5-yl}-N-(3-fluoro-4-{[2-(methyloxy)ethyl]oxy}phenyl)-2-pyrimidinamine] | > 7.00 | > 6.30 | > 6.30 | > 6.30 | > 6.30 | 5.30 to 6.30 | 
CCNc1nc(-c2cc(OC)cc(OC)c2)c(-c2ccnc(Nc3ccc(OC4CCN(CCF)CC4)c(OC)c3)n2)o1 [Example 96] | > 7.00 | 5.30 to 6.30 | 5.30 to 6.30 | 5.30 to 6.30 | 5.30 to 6.30 | 5.30 to 6.30 | 
CCNc1nc(-c2cc(OC)cc(OC)c2)c(-c2ccnc(Nc3ccc(N4CCN(CCS(C)(=O)=O)CC4)c(F)c3)n2)o1 [Example 116] | > 7.00 | 5.30 to 6.30 | 5.30 to 6.30 | > 6.30 | > 6.30 | 5.30 to 6.30 | 
CCNc1nc(-c2cc(C)cc(OC)c2)c(-c2ccnc(Nc3ccc(N4CCOCC4)c(C(F)(F)F)c3)n2)s1 [Example 25, 4-{2-(Ethylamino)-4-[3-methyl-5-(methyloxy)phenyl]-1,3-thiazol-5-yl}-N-[4-(4-morpholinyl)-3-(trifluoromethyl)phenyl]-2-pyrimidinamine] | > 7.00 | > 6.30 | > 6.30 | 5.30 to 6.30 | > 6.30 | 5.30 to 6.30 | 
CCNc1nc(-c2cc(C)cc(OC)c2)c(-c2ccnc(Nc3ccc(N4CCN(C)CC4)c(Cl)c3)n2)s1 [Example 31, N-[3-Chloro-4-(4-methyl-1-piperazinyl)phenyl]-4-{2-(ethylamino)-4-[3-methyl-5-(methyloxy)phenyl]-1,3-thiazol-5-yl}-2-pyrimidinamine] | > 7.00 | > 6.30 | > 6.30 | > 6.30 | > 6.30 | > 6.30 | 
COc1cc(OC)cc(-c2nc(NC3CC3)sc2-c2ccnc(Nc3ccc(OC4CCN(CCS(C)(=O)=O)CC4)c(F)c3)n2)c1 [Example 17, 4-[4-[3,5-Bis(methyloxy)phenyl]-2-(cyclopropylamino)-1,3-thiazol-5-yl]-N-[3-fluoro-4-({1-[2-(methylsulfonyl)ethyl]-4-piperidinyl}oxy)phenyl]-2-pyrimidinamine] | > 7.00 | > 6.30 | > 6.30 | > 6.30 | > 6.30 | > 6.30 | 
CCNc1nc(-c2cc(OC)cc(OC)c2)c(-c2ccnc(Nc3ccc(N4CCN(CCOC)CC4)c(C(=O)O)c3)n2)o1 [Example 119] | > 7.00 | 5.30 to 6.30 | 5.30 to 6.30 | 5.30 to 6.30 | 5.30 to 6.30 | 5.30 to 6.30 | 
CCNc1nc(-c2cc(C)cc(OC)c2)c(-c2ccnc(Nc3ccc(N4CCOCC4)c(F)c3)n2)o1.O=C(O)C(F)(F)F [Example 129] |  | 5.30 to 6.30 | 5.30 to 6.30 |  | 5.30 to 6.30 |  | +++ (at least one pIC50 measurement of greater than 7 against B-Raf)
CCNc1nc(-c2cc(OC)cc(OC)c2)c(-c2ccnc(Nc3ccc(N4CCN(C(=O)OCC)CC4)nc3)n2)o1 [Example 121] | > 7.00 |  |  | < 5.30 |  | < 5.30 | 

Further lines, with some results ahead:

pIC50 (B-Raf) | pIC50 (A375P tumor cells) | pIC50 (HT-29 tumor cells) | pIC50 (Colo205 tumor cells) | pIC50 (SK-MEL-3 tumor cells) | pIC50 (SK-MEL-28 tumor cells) | Structure (SMILES) | B-Raf Activity (B-Raf)
> 7.00 | 5.30 to 6.30 | > 6.30 | > 6.30 | > 6.30 | 5.30 to 6.30 | COc1cc(C)cc(-c2nc(C(C)C)oc2-c2ccnc(Nc3ccc(N4CCN(CCS(C)(=O)=O)CC4)c(F)c3)n2)c1 [Example 102] | 
> 7.00 | 5.30 to 6.30 | > 6.30 | > 6.30 | > 6.30 | 5.30 to 6.30 | CCNc1nc(-c2cc(OC)cc(OC)c2)c(-c2ccnc(Nc3ccc(N4CCN5CCCCC5C4)c(F)c3)n2)s1 (stereo not shown) [Example 115] | 
> 7.00 | > 6.30 | > 6.30 | > 6.30 | > 6.30 | > 6.30 | CCNc1nc(-c2cc(C)cc(OC)c2)c(-c2ccnc(Nc3ccc(N4CCN(C)CC4)c(OC)c3)n2)s1 [Example 33, 4-{2-(Ethylamino)-4-[3-methyl-5-(methyloxy)phenyl]-1,3-thiazol-5-yl}-N-[3-(methyloxy)-4-(4-methyl-1-piperazinyl)phenyl]-2-pyrimidinamine] | 
> 7.00 | 5.30 to 6.30 | 5.30 to 6.30 | 5.30 to 6.30 | 5.30 to 6.30 | 5.30 to 6.30 | CCNc1nc(-c2cc(OC)cc(OC)c2)c(-c2ccnc(Nc3ccc(OC4CCN(CCS(C)(=O)=O)CC4)c(Cl)c3)n2)o1 [Example 92] | 
> 7.00 | > 6.30 | > 6.30 | 5.30 to 6.30 | > 6.30 | 5.30 to 6.30 | CCNc1nc(-c2ccc(Cl)c(OC)c2)c(-c2ccnc(Nc3ccc(OCCN4CCCC4)c(Cl)c3)n2)s1 [Example 49, 4-[4-[4-Chloro-3-(methyloxy)phenyl]-2-(ethylamino)-1,3-thiazol-5-yl]-N-(3-chloro-4-{[2-(1-pyrrolidinyl)ethyl]oxy}phenyl)-2-pyrimidinamine] | 
> 7.00 | > 6.30 | > 6.30 | > 6.30 | > 6.30 | 5.30 to 6.30 | CCNc1nc(-c2cc(OC)cc(OC)c2)c(-c2ccnc(Nc3ccc(N4CCN(CCS(C)(=O)=O)CC4)nc3)n2)s1 [Example 1, 4-[4-[3,5-Bis(methyloxy)phenyl]-2-(ethylamino)-1,3-thiazol-5-yl]-N-(6-{4-[2-(methylsulfonyl)ethyl]-1-piperazinyl}-3-pyridinyl)-2-pyrimidinamine] | 
> 7.00 | > 6.30 | > 6.30 | > 6.30 | > 6.30 | 5.30 to 6.30 | CCNc1nc(-c2cc(C)cc(OC)c2)c(-c2ccnc(Nc3ccc4c(c3)CS(=O)(=O)C4)n2)s1 [Example 14, N-(2,2-Dioxido-1,3-dihydro-2-benzothien-5-yl)-4-{2-(ethylamino)-4-[3-methyl-5-(methyloxy)phenyl]-1,3-thiazol-5-yl}-2-pyrimidinamine] | 
> 7.00 | > 6.30 | > 6.30 | > 6.30 | > 6.30 | 5.30 to 6.30 | CCNc1nc(-c2cc(OC)ccc2F)c(-c2ccnc(Nc3ccc(N4CCN(C)CC4)c(F)c3)n2)s1 [Example 56, 4-{2-(Ethylamino)-4-[2-fluoro-5-(methyloxy)phenyl]-1,3-thiazol-5-yl}-N-[3-fluoro-4-(4-methyl-1-piperazinyl)phenyl]-2-pyrimidinamine] | 
> 7.00 | 5.30 to 6.30 | > 6.30 | 5.30 to 6.30 | > 6.30 | 5.30 to 6.30 | COc1cc(OC)cc(-c2nc(NC3CC3)sc2-c2ccnc(Nc3ccc(OCCN4CCCC4=O)c(F)c3)n2)c1 [Example 16, 1-(2-{[4-({4-[4-[3,5-Bis(methyloxy)phenyl]-2-(cyclopropylamino)-1,3-thiazol-5-yl]-2-pyrimidinyl}amino)-2-fluorophenyl]oxy}ethyl)-2-pyrrolidinone trifluoroacetate] | 
